# “Also recorded” adds a separate entry of the source. Where two headings read alike, the source gives them in different places.
# Key:
# [1] = tested on: c-MYC/KRAS12V transformed BaF3 cells; test: Cell viability CCK8; format: cell-based
# Experimental: PM, panobinostat, Pom and DXM were dissolved in DMSO and stored at -20°C freezer. Cells were seeded at a density of 1.0-3.0 × 10^4 cells/well/100 μL in 96-well plates. After overnight incubation, cells were treated with the drug-containing culture medium for 24, 48, or 72 hours, and cell viability was measured using CCK8 (Oriscience, Chengdu, China) at the indicated time points with Biotek Cytation 3 at a wavelength of 450 nm. The IC50 values were calculated using GraphPad Prism 9.4.1, and Calcusyn 2.0 software was employed to calculate the CI values.
# Mice were weighed every two days. All data are represented as mean ± SEM.
# [2] = Plasma protein binding, equilibrium dialysis; format: in vitro ADME; settings: read-out: plasma protein binding rate (converted)
# Experimental: The plasma protein binding rate of Purinostat Mesylate was measured using equilibrium dialysis in Sprague-Dawley rats, Beagle dogs, crab-eating monkeys, and human plasma.
# [3] = Phase I trial NCT05526313, safety and tolerability (adverse events, CTCAE 5.0)
structure (smiles),measurement,setting,value
"CN(Cc1nc2c(N3CCOCC3)nc(-c3ccc(N)cc3)nc2n1C)c1ncc(C(=O)NO)cn1.CS(=O)(=O)O [PM, 2-(((2-(4-Aminophenyl)-9-methyl-6-(4-morpholinyl)-9H-purine-8-yl)methyl)methylamino)-N-hydroxy-5-pyrimidine-carboxamide Mesylate]",superior antiproliferation activity compared to panobinostat,[1],~4 fold
same,fraction unbound at 0.2 µM,"[2]; Beagle, dog",0.169
same,fraction unbound at 2 µM,"[2]; Beagle, dog",0.164
same,fraction unbound at 10 µM,"[2]; Beagle, dog",0.167
same,fraction unbound at 0.2 µM,"[2]; Sprague-Dawley, rat",0.057
same,fraction unbound at 2 µM,"[2]; Sprague-Dawley, rat",0.045
same,fraction unbound at 10 µM,"[2]; Sprague-Dawley, rat",0.045
same,fraction unbound at 0.2 µM,[2]; human,0.097
same,fraction unbound at 2 µM,[2]; human,0.1
same,fraction unbound at 10 µM,[2]; human,0.096
same,fraction unbound at 0.2 µM,[2]; monkey,0.216
same,fraction unbound at 2 µM,[2]; monkey,0.205
same,fraction unbound at 10 µM,[2]; monkey,0.21
same,dose-limiting toxicity (DLT),[3]; 1.2–15 mg/m^2,no dose-limiting toxicities observed; also recorded: no dose-limiting toxicity (DLT) events occurred; also recorded: no arrhythmias or DLT were observed
same,grade 5 events,[3]; 29 treated patients,no grade 5 events reported
same,patients with grade 3–4 TEAEs,[3]; 29 treated patients,25 (86.2%) n (%)
same,COVID-19,[3]; […],1(3.4) n (%)
same,Investigations (SOC),[3]; […],29(100.0) n (%)
same,QRS axis abnormalities,[3]; […],1(3.4) n (%)
same,ST segment abnormalities on ECG,[3]; […],5(17.2) n (%)
same,ST-T segment changes on ECG,[3]; […],9(31.0) n (%)
same,T wave abnormalities on ECG,[3]; […],9(31.0) n (%)
same,abdominal discomfort,[3]; […],1(3.4) n (%)
same,abdominal distension,[3]; […],4(13.8) n (%)
same,abdominal pain,[3]; […],2(6.9) n (%)
same,abnormal liver function,[3]; […],1(3.4) n (%)
same,alopecia,[3]; […],1(3.4) n (%)
same,anemia,[3]; […],20(69.0) n (%)
same,angular cheilitis,[3]; […],1(3.4) n (%)
same,appendicitis,[3]; […],1(3.4) n (%)
same,arrhythmia,[3]; […],1(3.4) n (%)
same,arthralgia,[3]; […],3(10.3) n (%)
same,atrial tachycardia,[3]; […],1(3.4) n (%)
same,backache,[3]; […],1(3.4) n (%)
same,bacteremia,[3]; […],1(3.4) n (%)
same,belching,[3]; […],1(3.4) n (%)
same,bleeding gums,[3]; […],1(3.4) n (%)
same,blood and lymphatic system diseases (SOC),[3]; […],20(69.0) n (%)
same,chill,[3]; […],1(3.4) n (%)
same,conjunctival bleeding,[3]; […],1(3.4) n (%)
same,constipation,[3]; […],1(3.4) n (%)
same,cough,[3]; […],1(3.4) n (%)
same,decreased blood fibrinogen,[3]; […],1(3.4) n (%)
same,decreased lymphocyte count,[3]; […],16(55.2) n (%)
same,decreased monocyte count,[3]; […],2(6.9) n (%)
same,decreased neutrophil count,[3]; […],25(86.2) n (%)
same,decreased platelet count,[3]; […],24(82.8) n (%)
same,decreased white blood cell count,[3]; […],24(82.8) n (%)
same,diarrhea,[3]; […],4(13.8) n (%)
same,dizziness,[3]; […],13(44.8) n (%)
same,duodenogastric reflux,[3]; […],1(3.4) n (%)
same,dyspepsia,[3]; […],1(3.4) n (%)
same,dyspnea,[3]; […],1(3.4) n (%)
same,elevated blood creatine phosphokinase,[3]; […],1(3.4) n (%)
same,elevated blood unconjugated bilirubin,[3]; […],1(3.4) n (%)
same,epigastric pain,[3]; […],1(3.4) n (%)
same,epistaxis,[3]; […],2(6.9) n (%)
same,extraventricular contraction,[3]; […],1(3.4) n (%)
same,eye organ disease (SOC),[3]; […],2(6.9) n (%)
same,eyelid edema,[3]; […],1(3.4) n (%)
same,facial pain,[3]; […],1(3.4) n (%)
same,fatigue,[3]; […],3(10.3) n (%)
same,fever,[3]; […],2(6.9) n (%)
same,fungal skin infection,[3]; […],1(3.4) n (%)
same,gastritis,[3]; […],1(3.4) n (%)
same,gastroesophageal reflux disease,[3]; […],2(6.9) n (%)
same,gastrointestinal hemorrhage,[3]; […],1(3.4) n (%)
same,gastrointestinal system diseases (SOC),[3]; […],21(72.4) n (%)
same,head discomfort,[3]; […],1(3.4) n (%)
same,headache,[3]; […],14(48.3) n (%)
same,heart organ diseases (SOC),[3]; […],13(44.8) n (%)
same,heat and cold intolerance,[3]; […],1(3.4) n (%)
same,hematochezia,[3]; […],1(3.4) n (%)
same,hematuria,[3]; […],4(13.8) n (%)
same,hepatic failure,[3]; […],2(6.9) n (%)
same,hepato-biliary diseases (SOC),[3]; […],3(10.3) n (%)
same,herpes zoster,[3]; […],4(13.8) n (%)
same,herpesvirus infection,[3]; […],1(3.4) n (%)
same,high voltage on ECG,[3]; […],3(10.3) n (%)
same,hypercalcemia,[3]; […],1(3.4) n (%)
same,hyperglycemia,[3]; […],7(24.1) n (%)
same,hyperlipoidemia,[3]; […],4(13.8) n (%)
same,hypermagnesemia,[3]; […],3(10.3) n (%)
same,hypertension,[3]; […],2(6.9) n (%)
same,hypertriglyceridemia,[3]; […],2(6.9) n (%)
same,hyperuricemia,[3]; […],4(13.8) n (%)
same,hypoalbuminemia,[3]; […],1(3.4) n (%)
same,hypocalcemia,[3]; […],7(24.1) n (%)
same,hypochloremia,[3]; […],4(13.8) n (%)
same,hypokalemia,[3]; […],11(37.9) n (%)
same,hypomagnesemia,[3]; […],4(13.8) n (%)
same,hyponatremia,[3]; […],10(34.5) n (%)
same,hypophosphatemia,[3]; […],13(44.8) n (%)
same,hypotension,[3]; […],2(6.9) n (%)
same,increased blood creatinine,[3]; […],2(6.9) n (%)
same,increased lymphocyte count,[3]; […],1(3.4) n (%)
same,increased monocyte count,[3]; […],13(44.8) n (%)
same,increased serum bilirubin,[3]; […],4(13.8) n (%)
same,increased total bile acid,[3]; […],1(3.4) n (%)
same,increased troponin,[3]; […],1(3.4) n (%)
same,increased urobilinogen in the urine,[3]; […],3(10.3) n (%)
same,increased γ-glutamyl transferase,[3]; […],2(6.9) n (%)
same,infections and infestations diseases (SOC),[3]; […],13(44.8) n (%)
same,infectious pneumonia,[3]; […],1(3.4) n (%)
same,insomnia,[3]; […],1(3.4) n (%)
same,kidney and urinary system diseases (SOC),[3]; […],6(20.7) n (%)
same,left ventricular dysfunction,[3]; […],1(3.4) n (%)
same,limb pain,[3]; […],2(6.9) n (%)
same,loss of appetite,[3]; […],2(6.9) n (%)
same,mental disorder (SOC),[3]; […],1(3.4) n (%)
same,metabolic and nutritional diseases (SOC),[3]; […],23(79.3) n (%)
same,muscle weakness,[3]; […],1(3.4) n (%)
same,musculoskeletal discomfort,[3]; […],1(3.4) n (%)
same,nasal congestion,[3]; […],1(3.4) n (%)
same,nausea,[3]; […],15(51.7) n (%)
same,oral hypoesthesia,[3]; […],2(6.9) n (%)
same,oral mucositis,[3]; […],1(3.4) n (%)
same,palpitation,[3]; […],4(13.8) n (%)
same,parageusia,[3]; […],1(3.4) n (%)
same,pericardial effusion,[3]; […],1(3.4) n (%)
same,periodontitis,[3]; […],1(3.4) n (%)
same,peripheral edema,[3]; […],1(3.4) n (%)
same,petechia,[3]; […],2(6.9) n (%)
same,proteinuria,[3]; […],1(3.4) n (%)
same,pruritus,[3]; […],3(10.3) n (%)
same,pulmonary inflammation,[3]; […],1(3.4) n (%)
same,rash,[3]; […],3(10.3) n (%)
same,reduced intake,[3]; […],10(34.5) n (%)
same,renal failure,[3]; […],1(3.4) n (%)
same,respiratory tract infection,[3]; […],1(3.4) n (%)
same,right bundle branch block,[3]; […],1(3.4) n (%)
same,sinus bradycardia,[3]; […],1(3.4) n (%)
same,sinus tachycardia,[3]; […],7(24.1) n (%)
same,skin and subcutaneous tissue diseases (SOC),[3]; […],10(34.5) n (%)
same,skin pain,[3]; […],1(3.4) n (%)
same,skin xerosis,[3]; […],2(6.9) n (%)
same,soft tissue infection,[3]; […],1(3.4) n (%)
same,supraventricular extraventricular contraction,[3]; […],2(6.9) n (%)
same,systemic diseases and various reactions at the administration site (SOC),[3]; […],19(65.5) n (%)
same,tachypnea,[3]; […],3(10.3) n (%)
same,tongue ulcer,[3]; […],1(3.4) n (%)
same,upper respiratory tract bacterial infection,[3]; […],1(3.4) n (%)
same,upper respiratory tract infection,[3]; […],3(10.3) n (%)
same,urinary tract infection,[3]; […],3(10.3) n (%)
same,urine protein detection,[3]; […],4(13.8) n (%)
same,various musculoskeletal and connective tissue diseases (SOC),[3]; […],7(24.1) n (%)
same,various neurological diseases (SOC),[3]; […],19(65.5) n (%)
same,vascular and lymphatic diseases (SOC),[3]; […],3(10.3) n (%)
same,ventricular hypokinesia,[3]; […],1(3.4) n (%)
same,vesicular rash,[3]; […],1(3.4) n (%)
same,vomit,[3]; […],15(51.7) n (%)
same,weakness,[3]; […],14(48.3) n (%)
same,ST segment abnormalities on ECG,"[3]; […], second line of this term",1(3.4) n (%)
same,hypermagnesemia,"[3]; […], second line of this term",2(6.9) n (%)
same,Grade ≥3 lymphopenia,"[3]; all doses, N = 29",31.0%
same,Grade ≥3 thrombocytopenia,"[3]; all doses, N = 29",75.9%
